Consider nine compounds from US8481537B2, “Caspase inhibitors based of pyridazinone scaffold” (LG Life Sciences Ltd., priority 2006, dated 2013).

The subject of assay [1] is Jurkat cell (ATCC TIB-152). The assay can be described thus: Jurkat cell apoptosis induced by Fas antibody, WST-1 method. The settings on record: Homo sapiens, amount of alive cells by WST-1. The assay is classed as cell-based. As for the experimental part: The […] inhibitory activity of the inhibitors was determined by subjecting Jurkat cell (ATCC TIB-152) to apoptosis using Fas antibody (Upstate Biotech 05-201) and by detecting the color change according to the WST-1 method known in Francoeur A. M. and Assalian A. (1996) Biochemica 3, 19-25 to observe the amount of alive Jurkat cells when the cells were treated by the inhibitor. Spectra MAX 340 Spectrometer of Molecular Device Co. was used at the absorbance wavelength of 440 nm.
For orientation: Tetrazolium dyes change colour on reduction, which living cells bring about.

The next assay has as its target T1, Caspase-8 (Homo sapiens, UniProt Q14790).
T1 construct: p10 and p20 subunits (Thornberry, N. A. et al, Nature, 1992, 356, 768) were expressed in E. coli; made in house; host or cells: E. coli
The assay can be described thus: Caspase inhibitory effect, fluorescent substrate AcDEVD-AFC. The settings on record: pH 7.5; 2.1 nM caspase-8, 50 μM AcDEVD-AFC, 25° C., pH 7.50; read-out: Caspase-8 Kobs/[I] (converted). The assay is classed as biochemical. As for the experimental part: Caspase-1 and caspase-8 known as cysteine proteases in the form of α2β2 were expressed, purified, and activated by modifying a method known in Thornberry, N. A. et al, Nature, 1992, 356, 768. Thornberry, N. A. Methods in Enzymology, 1994, 244, 615. Walker, N. P. C. et al. Cell, 1994, 78, 343, and caspase-9 was also purified by a similar method, and the inhibitory activity against them was tested. Briefly describing, p10 and p20 subunits (Thornberry, N. A. et al, Nature, 1992, 356, 768) were expressed in E. coli and purified by nickel column and anionic exchange chromatography to give caspase-1, caspase-8 and caspase-9. The fluorescent substrates AcYVAD-AFC for thus obtained caspase-1, AcDEVD-AFC for caspase-8, and AcLEHD-AFC for caspase-9, were used for determining specific activity of the synthesized inhibitors. The enzyme reaction was carried out at 25° C. with various concentrations of the inhibitors in a buffer solution containing 50 mM HEPES(pH 7.50), 10% (w/v) sucrose, 0.1% (w/v) CHAPS, 100 mM NaCl, 1 mM EDTA, and 10 mM DTT in the presence of 50 μM AcYVAD-AFC for 10 nM caspase-1, 50 μM AcDEVD-AFC for 2.1 nM caspase-8, and 150 μM AcLEHD-AFC for 200 nM caspase-9. The inhibitory constants Ki and Kobs of the inhibitors were determined by measuring the reaction velocity with the time lapse using a fluorescent spectrometer and by obtaining the initial rate constant. Ki was calculated from the Lineweaver Burk Plot, and Kobs from the following Equation 1. Kobs=−ln(1−At/Aoo)/t [Equation 1]
At means cleavage rate (%) at time t, and
Aoo means the maximum cleavage rate (%).
Spectra MAX GeminiXS Fluorescent Spectrometer of Molecular Device Co. was used at the excitation wavelength of 405 nm and the emission wavelength of 505 nm.

Structures are written as SMILES. pIC50: −log10 of the molar value.

T1 sequence (Q14790 217-374 limits assumed, species assumed): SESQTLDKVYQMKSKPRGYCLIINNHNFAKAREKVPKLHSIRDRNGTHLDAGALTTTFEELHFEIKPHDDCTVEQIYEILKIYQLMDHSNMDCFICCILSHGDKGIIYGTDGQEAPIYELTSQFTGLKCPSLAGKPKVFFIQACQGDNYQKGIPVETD
T1 sequence (Q14790 385-479 limits assumed, species assumed): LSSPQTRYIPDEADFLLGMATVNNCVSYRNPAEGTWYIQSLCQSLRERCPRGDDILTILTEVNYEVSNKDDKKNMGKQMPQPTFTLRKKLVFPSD

`CCC(C(=O)NC(CC(=O)O)C(=O)CF)c1ccnn(Cc2ccccc2C(F)(F)F)c1=O` (stereo not drawn) [Example 21, 5-Fluoro-4-oxo-3-{2-[3-oxo-2-(2-trifluoromethyl-benzyl)-2,3-dihydro-pyridazin-4-yl]-butyrylamino}-pentanoic acid]: the pIC50 in assay [1] was 7.37. Besides, the kinact/KI on Caspase-8 is 66700 M⁻¹ s⁻¹.

`CCC(C(=O)NC(CC(=O)O)C(=O)CF)c1ccnn(Cc2cccc(C(F)(F)F)c2)c1=O` (stereo not drawn) [Example 22, 5-Fluoro-4-oxo-3-{2-[3-oxo-2-(3-trifluoromethyl-benzyl)-2,3-dihydro-pyridazin-4-yl]-butyrylamino}-pentanoic acid] had a pIC50 in assay [1] of 6.67. Moreover, the kinact/KI at Caspase-8 was 14300 M⁻¹ s⁻¹.

Consider `CC[C@@H](C(=O)N[C@@H](CC(=O)O)C(=O)COc1c(F)c(F)cc(F)c1F)c1ccnn(Cc2ccccc2C(C)(C)C)c1=O` [Example 24-1, (S)-3-{(R)-2-[2-(2-tert-Butyl-benzyl)-3-oxo-2,3-dihydro-pyridazin-4-yl]-butyrylamino}-4-oxo-5-(2,3,5,6-tetrafluoro-phenoxy)-pentanoic acid], for which the pIC50 in assay [1] is 7.92. Moreover, the kinact/KI at Caspase-8 is 63300 M⁻¹ s⁻¹.

For the compound `CC[C@H](C(=O)N[C@@H](CC(=O)O)C(=O)COc1c(F)c(F)cc(F)c1F)c1ccnn(Cc2ccccc2C(C)(C)C)c1=O` [Example 24-2, (S)-3-{(S)-2-[2-(2-tert-Butyl-benzyl)-3-oxo-2,3-dihydro-pyridazin-4-yl]-butyrylamino}-4-oxo-5-(2,3,5,6-tetrafluoro-phenoxy)-pentanoic acid], the pIC50 in assay [1] was 5.38. Besides, the kinact/KI at Caspase-8 was 1830 M⁻¹ s⁻¹.

In assay [1], `CC[C@@H](C(=O)N[C@@H](CC(=O)O)C(=O)COc1c(F)c(F)cc(F)c1F)c1ccnn(Cc2cccc(C(C)(C)C)c2)c1=O` [Example 25-1, (S)-3-{(R)-2-[2-(3-tert-Butyl-benzyl)-3-oxo-2,3-dihydro-pyridazin-4-yl]-butyrylamino}-4-oxo-5-(2,3,5,6-tetrafluoro-phenoxy)-pentanoic acid] had a pIC50 of 7.51. Further, the kinact/KI on Caspase-8 was 26700 M⁻¹ s⁻¹.

Turning to `CC[C@H](C(=O)N[C@@H](CC(=O)O)C(=O)COc1c(F)c(F)cc(F)c1F)c1ccnn(Cc2cccc(C(C)(C)C)c2)c1=O` [Example 25-2, (S)-3-{(S)-2-[2-(3-tert-Butyl-benzyl)-3-oxo-2,3-dihydro-pyridazin-4-yl]-butyrylamino}-4-oxo-5-(2,3,5,6-tetrafluoro-phenoxy)-pentanoic acid], the negative-log IC50 (pIC50) in assay [1] is 5.71. For the same compound, on Caspase-8, the kinact/KI is 900 M⁻¹ s⁻¹.

In assay [1], `CC[C@@H](C(=O)N[C@@H](CC(=O)O)C(=O)COc1c(F)ccc(F)c1F)c1ccnn(Cc2ccccc2C(C)(C)C)c1=O` [Example 26-1, (S)-3-{(R)-2-[2-(2-tert-Butyl-benzyl)-3-oxo-2,3-dihydro-pyridazin-4-yl]-butyrylamino}-4-oxo-5-(2,3,6-trifluoro-phenoxy)-pentanoic acid] had a negative-log IC50 (pIC50) of 7.35. Also, on Caspase-8, the kinact/KI is 28300 M⁻¹ s⁻¹.

In turn, `CC[C@@H](C(=O)N[C@@H](CC(=O)O)C(=O)COc1c(F)cccc1F)c1ccnn(Cc2ccccc2C(C)(C)C)c1=O` [Example 27-1, (S)-3-{(R)-2-[2-(2-tert-Butyl-benzyl)-3-oxo-2,3-dihydro-pyridazin-4-yl]-butyrylamino}-5-(2,6-difluoro-phenoxy)-4-oxo-pentanoic acid] gave a negative logarithm of the IC50 (pIC50) in assay [1] of 7.05. The kinact/KI at Caspase-8 was 11700 M⁻¹ s⁻¹.

As for `CCC(C(=O)N[C@@H](CC(=O)O)C(=O)COP(=O)(c1ccccc1)c1ccccc1)c1ccnn(Cc2ccccc2C(C)(C)C)c1=O` (stereo partly drawn) [Example 28, (S)-3-{2-[2-(2-tert-Butyl-benzyl)-3-oxo-2,3-dihydro-pyridazin-4-yl]-butyrylamino}-5-(diphenyl-phosphinoyloxy)-4-oxo-pentanoic acid], the negative-log IC50 (pIC50) in assay [1] is 6.44. Besides, the kinact/KI at Caspase-8 was 56700 M⁻¹ s⁻¹.

Usually pIC50 stands for −log10 of the IC50, conventionally taken in molar units. Low readings indicate a high IC50, high ones a low IC50.
